Where two headings read alike, the source gives them in different places.
Legend:
Type in all cases: cell-based, mouse
[1] = test system: dissociated neurosphere cells; experiment: Neurosphere formation in the presence of AC inhibitors; conditions: 1,000 cells per well, 0.01 to 10 μM AC inhibitor, neurospheres counted, read-out: IC50 of inhibition of neurosphere formation
Description: Mouse brains harvested from E14.5 fetuses were digested with 0.25% trypsin/1mM EDTA solution for 30 minutes at 37° C. The tissues were triturated sequentially with a 10-mL pipette, a 1-mL pipette and a 0.2-mL pipette in medium containing 10% fetal bovine serum (FBS). The dissociated cells were washed 3 times with PBS by repeated resuspension and centrifugation, and filtered through a 40-μm strainer. The obtained single cells were plated in DMEM/F12 medium containing 10 ng/mL bFGF, 20 ng/mL EGF and B27 without vitamin A, and cultured for 7-10 days without changing the medium.
(§1) To assess the effects of CDy5 and AC inhibitors on neurosphere formation, dissociated neurosphere cells were plated in 12-well culture plates at a density of 1,000 cells per well and cultures in the presence of 2 μM or 4 μM CDy5 or 0.01 to 10 μM AC inhibitor. For vehicle control, DMSO was added to a volume of 0.1%. The IC50 values were calculated using GraphPad Prism software.
Ceranib-2 was developed as a ceramidase inhibitor by screening ˜50,000 small molecules and chemical optimization of a lead compound. It inhibits cancer cell growth in vivo as well as in vitro (21).

[2] = test system: dissociated neurosphere cells; experiment: Cytotoxicity assay: number of neurospheres grown in the presence of CDy5; conditions: for number of neurospheres: vehicle control 189±40
Description: as §1
(§2) Whether CDy5 exerts adverse effects on proliferation and differentiation of neural stem cells was also assessed using a neurosphere assay and multipotency test. For cytotoxicity assay, dissociated neurosphere cells were plated in triplicate in 6-well culture plates at a density of 1,000 cells per well and cultured in the presence of 2 μM or 4 μM CDy5. For vehicle control, 0.1% DMSO was added. After six days, the number of neurospheres was determined.

neurosphere cells = experiment: Neurosphere assay of FACS-sorted CDy5bright and CDy5dim cells; conditions: FACS-sorted cells, 3,000 cells per well, six days of culture
Description: The method of detecting a stem cell in a sample can further comprise distinguishing between a neural stem cell and a differentiated neural cell in the sample. For example, when a mouse neurosphere was treated with CDy5, cytoplasmic staining of a distinct cell population within the neurosphere was observed (FIG. 1). The so-called CDy5^bright cells, those visible in the right panel of FIG. 1, emitted a signal that was substantially greater than the signal emitted by the so-called CDy5^dim cells. […] In the experiment described above, a cell was considered to be a CDy5^dim cell if no signal could be detected by fluorescence microscopy, or the signal detected was not substantially greater than background signal.
Dissociated neurosphere cells were cultured in a complete neurosphere culture medium containing 2 μM CDy5 for six days. They were dissociated for single cell imaging, live cell time-lapse imaging and clonal neurosphere imaging. […]
To examine the relationship between stemness and CDy5 staining, CDy5^bright and CDy5^dim neurosphere cells were sorted and collected by FACS and separately resuspended in neurosphere culture medium and plated in triplicate in […] culture plates at a density of 3,000 cells per well. […] After six days of culture, the number of neurospheres was counted manually under a microscope.

neurospheres [3] = experiment: Differentiation potential of neurospheres generated from CDy5bright and CDy5dim cells; conditions: mean±SD of duplicates
Description: Single neurospheres were plated onto glass coverslips coated with laminin and poly-L-lysine and cultured in bFGF/EGF-depleted neurosphere culture medium containing 5% fetal bovine serum. The differentiated cells were fixed with 4% paraformaldehyde and stained using primary antibodies: Tuj1 (Covance), glial fibrillary acidic protein (GFAP) (Dako), and O4 (Millipore), and appropriate secondary antibodies: Alexa Fluor 488 goat anti-mouse, Alexa Fluor 594 goat anti-mouse and Alexa Fluor 647 donkey anti-rabbit (Life Technologies), respectively. Tuj1 was used as a marker for neurons, GFAP was used as a marker for astrocytes and 04 was used as a marker for oligodendrocytes.
When the neurospheres were randomly differentiated in a medium containing only FBS, and immunostained against astrocyte, neuron and oligodendrocyte markers as described above, more numbers of neurospheres generated from CDy5^bright cells differentiated into all three types of cells than those from CDy5^dim cells. The CDy5^bright cells differentiated into 30±4% uni-potent cells, 26±1 bi-potent cells and 44±3 tri-potent cells. The CDy5^dim cells differentiated into 47±6 uni-potent cells, 22±1 bi-potent cells and 31±7 tri-potent cells. Data represent mean±standard deviation (SD) of duplicates.

neurospheres [4] = experiment: Multipotency test of neurospheres generated in the presence of CDy5; conditions: neurospheres generated in the presence of CDy5, differentiated in 5% FBS
Description: as §2
The single neurospheres generated in the presence of CDy5 and normal medium were then plated onto glass coverslips coated with laminin and poly-L-lysine, cultured in medium containing 5% fetal bovine serum and allowed to undergo differentiation. The differentiated cells were immunostained using antibodies raised against markers of astrocyte, neuron and oligodendrocyte to classify the neurospheres into uni-, bi- and tri-potent depending on the number of positively stained cell types. The control group contained 55±6% unipotent neurospheres, 29±3% bipotent neurospheres and 16±3% tripotent neurospheres. The CDy5 group contained 49±1% unipotent neurospheres, 31±4% bipotent neurospheres and 20±3% tripotent neurospheres. These are very similar ratios of differentiation potential of neurospheres between control and CDy5 groups.

neurospheres [5] = experiment: Dye retention in stained neurospheres after paraformaldehyde fixation and methanol extraction; conditions: 4% paraformaldehyde fixation followed by absolute methanol
Excerpt: To determine if CDy5 forms a covalent bond with a protein, neurospheres stained with CDy5 and Hoechst 33342 were fixed using 4% paraformaldehyde followed by absolute methanol, which extracts organic dyes bound to their targets by noncovalent bonding. Both CDy5 and Hoechst signals were detected when observed after fixation with paraformaldehyde.

[6] = neurospheres from CDy5bright cells
[7] = neurospheres from CDy5dim cells

`COc1ccc(/C=C/C(=O)c2c(-c3ccccc3)c3ccccc3[nH]c2=O)cc1` [Ceranib-2] gave an IC50 [1] of 780 nM.
For `CN(CCNC(=O)CCl)c1ccc2c(-c3cccc(CN4CCOCC4)c3)c3ccc(=N)cc-3oc2c1` [CDy5], the “number of neurospheres compared to vehicle-added control group” value ([2]; 2 μM and 4 μM CDy5, six days of culture) was “not significantly different”, the number of neurospheres ([2]; medium containing 2 μM CDy5) was 229±72 and the number of neurospheres ([2]; medium containing 4 μM CDy5) was 228±83. For the same molecule, the “times more neurospheres from CDy5bright cells than from CDy5dim cells” value (neurosphere cells) was “more than 10 times”, the bi-potent (neurospheres [3]; [6]) was 26±1% and the tri-potent (neurospheres [3]; [6]) was 44±3%. For the same molecule, the uni-potent (neurospheres [3]; [6]) was 30±4%, the bi-potent (neurospheres [3]; [7]) was 22±1% and the tri-potent (neurospheres [3]; [7]) was 31±7%. The uni-potent (neurospheres [3]; [7]) was 47±6%, the tripotent neurospheres (neurospheres [4]; control 16±3%) was 20±3% and the bipotent neurospheres (neurospheres [4]; control 29±3%) was 31±4%. For the same molecule, the unipotent neurospheres (neurospheres [4]; control 55±6%) was 49±1%.
In the case of `CCOc1ccc(-c2nc3ccc(-c4nc5ccc(N6CCN(C)CC6)cc5[nH]4)cc3[nH]2)cc1` [Hoechst 33342], the “dye signal following methanol treatment” value (neurospheres [5]) is reported as “almost completely washed out”.
In the case of `CCCCCCNC(=O)n1cc(F)c(=O)[nH]c1=O` [Carmofur], the IC50 ([1]; Mus musculus) is reported as 920 nM.
